From a melting point compilation (Tetko et al.; mined from patent text by program, amines drawn as free bases though some values may be those of a salt) come the findings set out here.

Residues, ends and D or L forms follow the SMILES beside them. *: point of attachment. Bz = O=C(c1ccccc1)*

As a reminder, the melting point is the temperature of the solid-liquid transition.

As for `CC(C)(C)OC(=O)N[C@@H](Cc1ccccc1)c1nc2c(C(F)(F)F)cccc2c(=O)o1`, the melting point was 145 °C.
Molecule `CCn1c(=O)n(C)c(=O)c2c(C)onc21` displayed a melting point of 88 to 89 °C.
The same measure for `Nc1cnccc1CNC(=O)C1Cc2ccccc2N1S(=O)(=O)c1ccc(-c2cccc(C(F)(F)F)c2)cc1` (stereo not drawn): 105 to 108 °C.
On to `COc1ccc(OCC(O)CO)cc1` (stereo not drawn), for which the melting point was in the range of 73 to 74 °C.
With `N#CC(Cc1c[nH]cn1)(c1ccc(Cl)cc1)c1cccc(Cl)c1` (stereo not drawn), the melting point lay within 138 to 140 °C.
Molecule `CC(C(=O)O)c1ccc(CC(C)C(C)O)cc1` (stereo not drawn) yielded a melting point of 85 to 88 °C.
The molecule `COc1ccc(C[C@@H]2COc3ccc(OCc4ccc5ccccc5n4)cc3[C@@H]2O)cc1C(=O)O` (relative stereo) had a melting point of 167 to 169 °C.
The same measure for `CCCCn1nnnc1-c1ccc(C(=O)NCC2CCCC2(C)C)cc1` (stereo not drawn): 106 to 109 °C; for `CCOC(=O)CCCCSc1nc2ccccc2[nH]1`: 88 to 90 °C; for `CCCCNc1c2c(nc3c1cnn3CC)C(=O)c1ccccc1CC2`: 181 to 183 °C.
Molecule `Cc1ccc(N2C(=O)c3nccnc3C2OC(=O)N2CCNCC2)nc1` (stereo not drawn) gave a melting point of 182 °C.
Turning to `Cc1cc(F)cc(-c2ccc3c(c2)C2(CCCCC2)C(=O)N3)c1`, the melting point is 180 to 182 °C.
Consider `CCc1ccc2c(c1)CC(=O)N2c1c(C)cccc1Cl`, for which the melting point fell in the range of 125 to 126 °C.
In the case of `COc1ccc(CN2C(=O)c3c(-c4ccccc4Cl)cc4c(c3C2=O)c2cc(OC)ccc2n4CCC(O)CO)c(OC)c1` (stereo not drawn), the melting point is 126 to 131 °C.
Take `CCNC(=O)[C@@H]1CCCN1C(=O)[C@H](C)NC(=O)c1ccccc1` (Bz-Ala-Pro-NHEt): the melting point fell in the range of 200 to 202 °C.
For `O=C(O)CNc1nccc(-c2nc(=O)c3ccccc3s2)n1`, the melting point is 283 to 284 °C.
Turning to `CCCc1nc2c(N)nc3cc(Br)ccc3c2n1CCCON=C(C)C`, the melting point lay in the range of 182 to 183 °C.
As to `c1ccc2c(c1)-c1ccccc1C21c2ccccc2-c2ccccc21`, the melting point came to 198 °C.
The molecule `CCn1ncc2c(NCC3(O)CCCCC3)c3cc(OC)ccc3nc21` registered a melting point of 201 to 203 °C.
`Fc1cc(OC2CCOCC2)c2c(Nc3c(Cl)ccc4c3OCO4)ncnc2c1` gave a melting point of 209 to 212 °C.
In turn, `Nc1ccc(Nc2ccc(CCc3ccc(Cl)c(Cl)c3)cc2)c(C(=O)O)c1` gave a melting point of 137 to 142 °C.
Take `COc1cc2ccnc(N3CCN(C(=O)Nc4ccc([N+](=O)[O-])cc4)CC3)c2cc1OC`: the melting point fell in the range of 247 to 248 °C.
Turning to `COC(=O)C1(C)CC(C(=O)Nc2ccc(Cl)cc2)=NN1c1ccc(Cl)cc1` (stereo not drawn), the melting point is 138 to 140 °C.
The molecule `Cc1ccc(N)c(C)c1C1OCCO1` displayed a melting point of 100 to 103 °C.
Molecule `CC(=O)OC1CSC(Oc2ccc(-c3cccnc3C)nc2)C(OC(C)=O)C1OC(C)=O` (stereo not drawn) had a melting point of 198 to 200 °C.
In turn, `CCCCn1c(COc2ccccc2)nc2c(N)nc3ccccc3c21` came in with a melting point of 172 to 173 °C.
As to `COCC1CN(c2cc3c(cc2F)c(=O)c(C(=O)O)cn3-c2ccc(F)cc2)CCN1` (stereo not drawn), the melting point is 216 to 218 °C.
Regarding `CN[C@@]1(C)CCN(c2c(-c3cccc(F)c3)c(C)c(C#N)c3nc(C(=O)N(C)C)oc23)C1`, the melting point fell in the range of 178 to 180 °C.
The molecule `N=c1sc2cc(OC(F)(F)F)ccc2n1CC(N)=O` showed a melting point of 228 °C.
As for `Fc1ccccc1N1CCN(CCCCNc2ccc(-c3ccccc3)cn2)CC1`, the figure is 95 °C; as for `CCOC(=O)c1csc(NC(=O)c2cc(C(C)(C)C)c(O)c(C(C)(C)C)c2)n1`, 233 to 235 °C; as for `COc1ccc2c(c1)CCC(CN1CCC3(CC1)C(=O)NCN3c1ccccc1)C2=O` (stereo not drawn), 177 to 179 °C.
As for `CN1CCN(c2ccc(Nc3nc(N)c(C(=O)c4c(F)cccc4F)s3)cc2)CC1`, the figure is 168 to 170 °C; as for `Cn1c(CNC(=O)Nc2ccc3c(c2)CCC3NC(=O)OC(C)(C)C)c(-c2ccccc2)c2cc(Cl)ccc2c1=O` (stereo not drawn), 225 to 227 °C; as for `CC(C)Oc1cc(-n2c(Cl)nc(C(F)(F)F)cc2=O)c(F)cc1Cl`, 88 to 90 °C.
As for `CCOC(=O)c1ncn2c3cccc(Cl)c3c(=O)n(C)c12`, the figure is 248 to 254 °C; as for `CCCc1c(C(=O)C2CCCCC2)c2ccc(C(N)=O)cc2n1Cc1ccccc1Cl`, 208 to 210 °C.
Consider `COc1ccc(OC)c2c1C(=O)C=C(SCCCCCCO)C2=O`, for which the melting point was 87 to 88 °C.
With `CCc1nn(C2CCCC2)c2cc(C3=NOC(C)(c4noc(-c5cc(OC)cc(OC)c5)n4)C3)ccc12` (stereo not drawn), the melting point was 154 to 155 °C.
In the case of `Nc1cc(N2CCCCC2)c(F)cc1[N+](=O)[O-]`, the melting point was 112 to 113 °C.
With `COc1cc2c3c(c1)nc(SCc1ccncc1)n3CCC2`, the melting point was in the range of 99 to 101 °C.
Turning to `Cc1cc(N)cc2c1NC(=O)CC2C` (stereo not drawn), the melting point is 207 to 210 °C.
As for `CC(C)NC=C1C(=O)COc2ccccc2C1=O`, the figure is 89 to 91 °C; as for `CC1C(C)(C)C2=C(c3ncncc3CC2)C1(C)C` (stereo not drawn), 80 °C; as for `C[C@@H](Nc1ncnc2cc(N)ncc12)c1ccccc1`, 232 °C.
`CCCN(CCC)C1COc2cccc(C(=O)c3ccccc3F)c2C1` (stereo not drawn) had a melting point of 98.3 to 98.4 °C.
As to `CS(=O)(=O)c1cc(C(=O)O)ccc1Oc1ccc([N+](=O)[O-])cc1`, the melting point was in the range of 140 to 150 °C.
As for `CCn1cc(C(=O)NN)c(=O)c2ccc(-c3ccccc3)cc21`, the figure is 243 to 244 °C; as for `Cc1ccc(S(=O)(=O)Nc2nc(-c3cccc(C#N)c3)cs2)cc1`, above 250 °C; as for `O=C(C(Cl)Cl)N1CCSC12CCCCC2`, 149 to 151 °C.
In turn, `COc1ccc2c(c1)C(=O)c1ccc(C(=O)O)cc1CC2` showed a melting point of 201 to 203 °C.
`Cc1nc2ccccc2n1Cc1ccc(C(=O)O)cc1` returned a melting point of 300 °C.
For the molecule `O=c1ccn([C@@H]2C[C@H](O)[C@@H](O)[C@H]2O)c(=O)[nH]1` (racemic), the melting point was 229 to 230 °C.
In the case of `O=C(CN1CCOCC1)NC(c1ccccc1)C1(c2ccc(Cl)cc2)CCC1` (stereo not drawn), the melting point is 95 to 97 °C.
With `CCc1nc2c(N)nc3cc(OCCN(C(N)=O)C(C)C)ccc3c2n1CC1CCOCC1`, the melting point lay in the range of 223 to 225 °C.
`c1ccc(CNc2nc(-c3cccs3)nc3ccccc23)cc1` displayed a melting point of 158 to 163 °C.
The same measure for `CCn1nnnc1C(C=O)=C(c1ccc(F)cc1)c1ccc(F)cc1`: 144 to 145 °C.
`CN(C)CCc1nc2cccnc2[nH]1` came in with a melting point of 109 to 112 °C.
Turning to `CCCCCCC(Oc1ccc(NC(=O)NC(=O)c2c(Cl)cccc2Cl)cc1)c1ccccc1` (stereo not drawn), the melting point lay within 146 to 149 °C.
The same measure for `Oc1nnc(Cl)cc1N1CCNCC1`: 35 °C; for `CCCCS(=O)(=O)Oc1cn(C)c2ccccc2c1=O`: 143 to 144 °C; for `CCCC[C@H](NC(=O)[C@H](C)Nc1nc2ccccc2s1)C(=O)OC`: 99 to 120 °C.
Consider `O=C(c1ccccc1)c1ccc2nc(Br)c(C(F)(F)F)nc2c1`, for which the melting point was 124 to 126 °C.
As to `Nc1nc2c(s1)CCN(CC=Cc1cccc(O)c1)CC2`, the melting point fell in the range of 85 to 95 °C.
For `NC(=O)c1cc(OCCCN2CCN(c3cccc4sccc34)CC2)c2ccccc2n1`, the melting point lay within 153 to 154 °C.
Consider `CCOC(=O)c1cn2c3c(c(Br)c(F)cc3c1=O)OCC2C` (stereo not drawn), for which the melting point was above 250 °C.
With `CNC(=O)CN1CCC(O)C1=O` (stereo not drawn), the melting point was 129 to 130 °C.
With `CCCCS(=O)(=O)Nc1ccc(CCCCOCCCCCCNCC(O)c2ccc(O)c(CO)n2)cc1` (stereo not drawn), the melting point was in the range of 55 to 57 °C.
The same measure for `CCOC(=O)C1C(=O)N(C)C(=S)N(C)C1=O`: 90 to 93 °C.
Molecule `COC(=O)C1(S(=O)(=O)N2CCC(c3ccc(Br)c(C)c3)CC2)CCOCC1` gave a melting point of 162 to 163 °C.
In turn, `O=CNCc1ccc2[nH]cc(CCN3C(=O)c4ccccc4C3=O)c2c1` returned a melting point of 45 °C.
The same measure for `O=[N+]([O-])c1cccc(Cn2c(-c3ccc4c(c3)OCO4)nc3ccccc32)c1`: 70.2 to 73 °C.
The same measure for `Cc1c(NC(=O)c2ccccc2NCc2ccc(=O)[nH]c2)cccc1C(F)(F)F`: 191 to 192 °C; for `O=C(Nc1ccc(N2CCN(C(C(=O)NCC(F)(F)F)c3ccccc3)CC2)cc1)c1ccccc1-c1ccc(C(F)(F)F)cc1` (stereo not drawn): 208 °C; for `CS[C@H]([C@@H](C)C(=O)O)[C@@H]1CCCN1C(=O)OC(C)(C)C`: 141 to 142 °C.
The same measure for `Cc1cc(N)c(C)c2c1OC(C)(C)C2=O`: 124 to 126 °C; for `NCCCC1(C(N)=O)c2ccccc2-c2ccccc21`: 198 to 200 °C; for `CN(C(=O)c1ccc(Cl)cc1)c1ccccc1CCCC(C(=O)O)C(=O)O`: 117 to 118 °C.
In turn, `CCOCc1nc2cnc3cccnc3c2n1CC1(O)CCOCC1` came in with a melting point of 168 to 169 °C.
The same measure for `Cc1ccc(C2c3c(C)c(N4CCN(c5ccccc5[N+](=O)[O-])CC4)c(C)c(C)c3OC2(C)C)cc1` (stereo not drawn): 178 to 180 °C; for `CS(=O)(=O)c1ccc(-n2nc(C(F)(F)F)cc2-c2ccc(-c3cncs3)cc2)cc1`: 169 to 170 °C.
With `CC(C)(C)Nc1nccc(C#C[Si](C)(C)C)n1`, the melting point fell in the range of 71 to 73 °C.
`CN1CCN(NC(=O)Nc2cccc3c2C(=O)c2c-3n[nH]c2-c2ccc(N3CCN(C)CC3)cc2)CC1` returned a melting point of 293 °C.
In turn, `COc1ccc(-n2nc(C)cc2NC2=NCCN2C(C)=O)cc1` returned a melting point of 129 to 131 °C.
In the case of `O=C(CCCN1CCCC1=O)Nc1ncccc1C(=O)c1cccs1`, the melting point lay within 143 to 145 °C.
Consider `COc1ccc2c(C(F)(F)F)c(CC(=O)O)c(=O)oc2c1`, for which the melting point is 198 to 200 °C.
For `CN1CCN(Cc2cccc(-c3cc4c(Nc5cccc6[nH]ccc56)c(C#N)cnc4s3)c2)CC1`, the melting point was above 245 °C.
Molecule `Cc1ccc(CNc2c(NC(C)(C)C)c(=O)c2=O)c(C)c1` showed a melting point of 228 to 229 °C.
